Patent publication US20180289678A1, “PHARMACEUTICAL COMPOSITION, PHARMACEUTICAL DOSAGE FORM, PROCESS FOR THEIR PREPARATION, METHODS FOR TREATING AND USES THEREOF” (Boehringer Ingelheim International GmbH, priority 2009, published 2018)
Read-outs that look alike come from different tables or passages of the source.

Test: Study .2: multiple rising dose trial in diabetic patients, once daily for 8 days, pharmacokinetic parameters
Format: in vivo, human
Settings: for AUCτ,ss,norm Max / AUCτ,ss,norm Median / AUCτ,ss,norm Min / AUCτ,ss,norm gMean / Cmax,ss,norm Max / Cmax,ss,norm Median / Cmax,ss,norm Min / Cmax,ss,norm gMean: Study .2, steady state, dose-normalized
Method: 5. Pharmacokinetic Parameters
The pharmacokinetic parameters of pharmaceutical compositions and pharmaceutical dosage forms are assessed in healthy volunteer and patient populations. In the studies shown below, the participants fasted on the day of sampling, unless as otherwise stated (see for example study .3). The active substance in the studies below is the compound (I.9), preferably in the crystalline form (I.9X), and the dose of active ingredient is indicated in mg.
For the quantification of plasma concentrations of the active ingredient, 2.7 mL of blood was collected and transferred into an EDTA (ethylendiaminetetraacetic acid)-anticoagulant blood drawing tube. The EDTA-anticoagulated blood samples were centrifuged immediately after collection. Centrifugation lasted for about 10 minutes (at about 2,000×gf to 4,000×gf) at 4-8° C. or within 30 minutes while stored on ice. Concentrations of active substance in EDTA human plasma samples were quantitated using a HPLC/MS/MS method. The assay method comprised a solid phase supported liquid-liquid extraction of human plasma coupled with HPLC/MS/MS determination of the extracted samples. The HPLC/MS/MS assay was validated for the range of 1.11 to 1110 nM in human plasma.
Study .2: Multiple rising dose trial in a diabetic patient population of N=48, once daily administration for 8 days. Patients were administered tablets as described in Example 10 (section Examples of formulations).
AUC0-inf:area under the concentration-time curve of the analyte in plasma over the time interval from 0 extrapolated to infinity.
Cmax: maximum concentration of the analyte in plasma.
Tmax: time from dosing to maximum concentration.
AUCT,SS:area under the concentration-time curve of the analyte in plasma over the time interval from 0 to 24 h at steady-state.
Cmax,ss:maximum concentration of the analyte in plasma at steady state over a uniform dosing interval.
tmax,ss:time from dosing to maximum concentration at steady state.

[1] = 2.5 mg once daily, steady state, Study .2, fasted
[2] = 2.5 mg single dose, Study .2, fasted
[3] = 10 mg once daily, steady state, Study .2, fasted
[4] = 10 mg single dose, Study .2, fasted
[5] = 25 mg once daily, steady state, Study .2, fasted
[6] = 25 mg single dose, Study .2, fasted

## OC[C@H]1O[C@@H](c2ccc(Cl)c(Cc3ccc(O[C@H]4CCOC4)cc3)c2)[C@H](O)[C@@H](O)[C@@H]1O [Compound (I.9), 1-chloro-4-(β-D-glucopyranos-1-yl)-2-[4-((S)-tetrahydrofuran-3-yloxy)-benzyl]-benzene]
[1]
  AUCτ,ss Max: 0.677 µM·h
  AUCτ,ss Mean: 0.471 µM·h
  AUCτ,ss Min: 0.283 µM·h
  tmax,ss Median: 1.50 h
  tmax,ss Min: 0.983 h
2.5 mg once daily, steady state, Study .2, fasted, read-out: Cmax,ss Max
  Cmax: 96.3 nM
2.5 mg once daily, steady state, Study .2, fasted, read-out: Cmax,ss Mean
  Cmax: 68.5 nM
2.5 mg once daily, steady state, Study .2, fasted, read-out: Cmax,ss Min
  Cmax: 40.3 nM
[2]
  AUC0-inf Max: 0.631 µM·h
  AUC0-inf Min: 0.326 µM·h
  AUC0-inf,norm Max: 252 nmol·h/L/mg
  AUC0-inf,norm Median: 200 nmol·h/L/mg
  AUC0-inf,norm Min: 130 nmol·h/L/mg
  AUC0-inf,norm gMean: 187 nmol·h/L/mg
  Cmax,norm Max: 32 nmol/L/mg
  Cmax,norm Median: 25 nmol/L/mg
  Cmax,norm Min: 17 nmol/L/mg
  Cmax,norm gMean: 25 nmol/L/mg
  tmax Max: 1.50 h
  tmax Min: 0.667 h
2.5 mg single dose, Study .2, fasted, read-out: Cmax Max
  Cmax: 81.2 nM
2.5 mg single dose, Study .2, fasted, read-out: Cmax Mean
  Cmax: 62.4 nM
2.5 mg single dose, Study .2, fasted, read-out: Cmax Min
  Cmax: 43.3 nM
[3]
  AUCτ,ss Max: 2.58 µM·h
  AUCτ,ss Mean: 2.03 µM·h
  AUCτ,ss Min: 1.64 µM·h
  tmax,ss Min: 0.983 h
10 mg once daily, steady state, Study .2, fasted, read-out: Cmax,ss Max
  Cmax: 479 nM
10 mg once daily, steady state, Study .2, fasted, read-out: Cmax,ss Mean
  Cmax: 283 nM
10 mg once daily, steady state, Study .2, fasted, read-out: Cmax,ss Min
  Cmax: 172 nM
[4]
  AUC0-inf Max: 2.4 µM·h
  AUC0-inf Min: 1.6 µM·h
  AUC0-inf,norm Max: 240 nmol·h/L/mg
  AUC0-inf,norm Median: 183 nmol·h/L/mg
  AUC0-inf,norm Min: 160 nmol·h/L/mg
  AUC0-inf,norm gMean: 189 nmol·h/L/mg
  Cmax,norm Max: 34 nmol/L/mg
  Cmax,norm Median: 23 nmol/L/mg
  Cmax,norm Min: 16 nmol/L/mg
  Cmax,norm gMean: 24 nmol/L/mg
  tmax Median: 1.50 h
  tmax Min: 0.983 h
10 mg single dose, Study .2, fasted, read-out: Cmax Max
  Cmax: 344 nM
10 mg single dose, Study .2, fasted, read-out: Cmax Mean
  Cmax: 245 nM
10 mg single dose, Study .2, fasted, read-out: Cmax Min
  Cmax: 163 nM
[5]
  AUCτ,ss Max: 6.65 µM·h
  AUCτ,ss Mean: 4.99 µM·h
  AUCτ,ss Min: 3.44 µM·h
  tmax,ss Max: 4.20 h
  tmax,ss Min: 0.667 h
25 mg once daily, steady state, Study .2, fasted, read-out: Cmax,ss Max
  Cmax: 793 nM
25 mg once daily, steady state, Study .2, fasted, read-out: Cmax,ss Mean
  Cmax: 630 nM
25 mg once daily, steady state, Study .2, fasted, read-out: Cmax,ss Min
  Cmax: 443 nM
[6]
  AUC0-inf Max: 6.92 µM·h
  AUC0-inf Min: 3.69 µM·h
  AUC0-inf,norm Max: 277 nmol·h/L/mg
  AUC0-inf,norm Median: 186 nmol·h/L/mg
  AUC0-inf,norm Min: 148 nmol·h/L/mg
  AUC0-inf,norm gMean: 191 nmol·h/L/mg
  Cmax,norm Max: 36 nmol/L/mg
  Cmax,norm Median: 23 nmol/L/mg
  Cmax,norm Min: 17 nmol/L/mg
  Cmax,norm gMean: 24 nmol/L/mg
  tmax Max: 4.00 h
  tmax Min: 0.983 h
25 mg single dose, Study .2, fasted, read-out: Cmax Max
  Cmax: 905 nM
25 mg single dose, Study .2, fasted, read-out: Cmax Mean
  Cmax: 606 nM
25 mg single dose, Study .2, fasted, read-out: Cmax Min
  Cmax: 420 nM
Dose 2.5 mg, plasma
  AUCτ,ss,norm Max: 271 nmol·h/L/mg
  AUCτ,ss,norm Median: 183 nmol·h/L/mg
  AUCτ,ss,norm Min: 113 nmol·h/L/mg
  AUCτ,ss,norm gMean: 184 nmol·h/L/mg
  Cmax,ss,norm Max: 39 nmol/L/mg
  Cmax,ss,norm Median: 29 nmol/L/mg
  Cmax,ss,norm Min: 16 nmol/L/mg
  Cmax,ss,norm gMean: 27 nmol/L/mg
Dose 10 mg, plasma
  AUCτ,ss,norm Max: 258 nmol·h/L/mg
  AUCτ,ss,norm Median: 194 nmol·h/L/mg
  AUCτ,ss,norm Min: 164 nmol·h/L/mg
  AUCτ,ss,norm gMean: 200 nmol·h/L/mg
  Cmax,ss,norm Max: 48 nmol/L/mg
  Cmax,ss,norm Median: 28 nmol/L/mg
  Cmax,ss,norm Min: 17 nmol/L/mg
  Cmax,ss,norm gMean: 27 nmol/L/mg
Dose 25 mg, plasma
  AUCτ,ss,norm Max: 266 nmol·h/L/mg
  AUCτ,ss,norm Median: 182 nmol·h/L/mg
  AUCτ,ss,norm Min: 138 nmol·h/L/mg
  AUCτ,ss,norm gMean: 196 nmol·h/L/mg
  Cmax,ss,norm Max: 32 nmol/L/mg
  Cmax,ss,norm Median: 24 nmol/L/mg
  Cmax,ss,norm Min: 18 nmol/L/mg
  Cmax,ss,norm gMean: 25 nmol/L/mg
human, plasma, oral, 2.5 mg, 2.5 mg once daily, steady state, Study .2, fasted, read-out: AUCτ,ss Median
  AUC: 0.458 µM·h
human, plasma, oral, 2.5 mg, 2.5 mg once daily, steady state, Study .2, fasted, read-out: AUCτ,ss gMean
  AUC: 0.46 µM·h
human, plasma, oral, 2.5 mg, 2.5 mg once daily, steady state, Study .2, fasted, read-out: Cmax,ss Median
  Cmax: 72 nM
human, plasma, oral, 2.5 mg, 2.5 mg once daily, steady state, Study .2, fasted, read-out: Cmax,ss gMean
  Cmax: 66.6 nM
human, plasma, oral, 2.5 mg, 2.5 mg once daily, steady state, Study .2, fasted, read-out: tmax,ss Mean
  Tmax: 1.33 h
human, plasma, oral, 2.5 mg, 2.5 mg once daily, steady state, Study .2, fasted, read-out: tmax,ss g Mean
  Tmax: 1.28 h
human, plasma, oral, 2.5 mg, 2.5 mg single dose, Study .2, fasted, read-out: AUC0-inf Mean
  AUC(0-inf): 0.476 µM·h
human, plasma, oral, 2.5 mg, 2.5 mg single dose, Study .2, fasted, read-out: AUC0-inf Median
  AUC(0-inf): 0.501 µM·h
human, plasma, oral, 2.5 mg, 2.5 mg single dose, Study .2, fasted, read-out: AUC0-inf gMean
  AUC(0-inf): 0.468 µM·h
human, plasma, oral, 2.5 mg, 2.5 mg single dose, Study .2, fasted, read-out: Cmax Median
  Cmax: 62.6 nM
human, plasma, oral, 2.5 mg, 2.5 mg single dose, Study .2, fasted, read-out: Cmax gMean
  Cmax: 61.3 nM
human, plasma, oral, 2.5 mg, 2.5 mg single dose, Study .2, fasted, read-out: tmax Mean
  Tmax: 1.41 h
human, plasma, oral, 2.5 mg, 2.5 mg single dose, Study .2, fasted, read-out: tmax Median
  Tmax: 1.5 h
human, plasma, oral, 2.5 mg, 2.5 mg single dose, Study .2, fasted, read-out: tmax gMean
  Tmax: 1.37 h
human, plasma, oral, 10 mg, 10 mg once daily, steady state, Study .2, fasted, read-out: AUCτ,ss Median
  AUC: 1.94 µM·h
human, plasma, oral, 10 mg, 10 mg once daily, steady state, Study .2, fasted, read-out: AUCτ,ss gMean
  AUC: 2 µM·h
human, plasma, oral, 10 mg, 10 mg once daily, steady state, Study .2, fasted, read-out: Cmax,ss Median
  Cmax: 279 nM
human, plasma, oral, 10 mg, 10 mg once daily, steady state, Study .2, fasted, read-out: Cmax,ss gMean
  Cmax: 272 nM
human, plasma, oral, 10 mg, 10 mg once daily, steady state, Study .2, fasted, read-out: tmax,ss Mean
  Tmax: 1.43 h
human, plasma, oral, 10 mg, 10 mg once daily, steady state, Study .2, fasted, read-out: tmax,ss Median
  Tmax: 1.5 h
human, plasma, oral, 10 mg, 10 mg once daily, steady state, Study .2, fasted, read-out: tmax,ss g Mean
  Tmax: 1.4 h
human, plasma, oral, 10 mg, 10 mg single dose, Study .2, fasted, read-out: AUC0-inf Mean
  AUC(0-inf): 1.91 µM·h
human, plasma, oral, 10 mg, 10 mg single dose, Study .2, fasted, read-out: AUC0-inf Median
  AUC(0-inf): 1.83 µM·h
human, plasma, oral, 10 mg, 10 mg single dose, Study .2, fasted, read-out: AUC0-inf gMean
  AUC(0-inf): 1.89 µM·h
human, plasma, oral, 10 mg, 10 mg single dose, Study .2, fasted, read-out: Cmax Median
  Cmax: 233 nM
human, plasma, oral, 10 mg, 10 mg single dose, Study .2, fasted, read-out: Cmax gMean
  Cmax: 240 nM
human, plasma, oral, 10 mg, 10 mg single dose, Study .2, fasted, read-out: tmax Mean
  Tmax: 1.5 h
human, plasma, oral, 10 mg, 10 mg single dose, Study .2, fasted, read-out: tmax gMean
  Tmax: 1.48 h
human, plasma, oral, 25 mg, 25 mg once daily, steady state, Study .2, fasted, read-out: AUCτ,ss Median
  AUC: 4.56 µM·h
human, plasma, oral, 25 mg, 25 mg once daily, steady state, Study .2, fasted, read-out: AUCτ,ss gMean
  AUC: 4.89 µM·h
human, plasma, oral, 25 mg, 25 mg once daily, steady state, Study .2, fasted, read-out: Cmax,ss Median
  Cmax: 603 nM
human, plasma, oral, 25 mg, 25 mg once daily, steady state, Study .2, fasted, read-out: Cmax,ss gMean
  Cmax: 622 nM
human, plasma, oral, 25 mg, 25 mg once daily, steady state, Study .2, fasted, read-out: tmax,ss Mean
  Tmax: 2.26 h
human, plasma, oral, 25 mg, 25 mg once daily, steady state, Study .2, fasted, read-out: tmax,ss g Mean
  Tmax: 1.97 h
human, plasma, oral, 25 mg, 25 mg single dose, Study .2, fasted, read-out: AUC0-inf Mean
  AUC(0-inf): 4.9 µM·h
human, plasma, oral, 25 mg, 25 mg single dose, Study .2, fasted, read-out: AUC0-inf Median
  AUC(0-inf): 4.64 µM·h
human, plasma, oral, 25 mg, 25 mg single dose, Study .2, fasted, read-out: AUC0-inf gMean
  AUC(0-inf): 4.78 µM·h
human, plasma, oral, 25 mg, 25 mg single dose, Study .2, fasted, read-out: Cmax Median
  Cmax: 569 nM
human, plasma, oral, 25 mg, 25 mg single dose, Study .2, fasted, read-out: Cmax gMean
  Cmax: 592 nM
human, plasma, oral, 25 mg, 25 mg single dose, Study .2, fasted, read-out: tmax Mean
  Tmax: 1.72 h
human, plasma, oral, 25 mg, 25 mg single dose, Study .2, fasted, read-out: tmax Median
  Tmax: 1.5 h
human, plasma, oral, 25 mg, 25 mg single dose, Study .2, fasted, read-out: tmax gMean
  Tmax: 1.6 h
